Seven molecules from patent publication US9580430B2, “9H-pyrimido[4,5-B]indoles and related analogs as BET bromodomain inhibitors” (THE REGENTS OF THE UNIVERSITY OF MICHIGAN, priority 2014, dated 2017) can be followed below.

Like-named read-outs stand apart in the source and are kept apart here.

In series [1] the target is T1, recombinant BRD4 BD1 (Homo sapiens, UniProt O60885).
T1 construct: for recombinant BRD4 BD1 and BRD4 BD2 proteins
Put plainly: Competitive fluorescence-polarization (FP) binding assay, BRD4 BD1. For IC50 (nM) BRD4 BD1: probe 1.5 nM. In short, it runs like this:
(§1)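 FP competition with FAM-labelled probe (ZBA248 or BRD-1F) against preincubated protein/probe complex; BD1 at 10 nM and BD2 at 6 nM final, in 100 mM potassium phosphate pH 6.5, 0.01% Triton X-100. 30 min, room temperature. IC50 by nonlinear regression; Ki also derived, using probe Kd from protein saturation.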

Series [2] has as its target T2, recombinant BRD4 BD2 (Homo sapiens, UniProt O60885).
T2 construct: for recombinant BRD4 BD1 and BRD4 BD2 proteins
The series can be described thus: Competitive fluorescence-polarization (FP) binding assay, BRD4 BD2. For IC50 (nM) BRD4 BD2: probe 1.5 nM. The gist of the method:
as §1

The test system of series [3] is MOLM-13. The series can be described thus: Cell growth inhibition, MOLM-13 leukemia cells (CellTiter-Glo). Conditions: Homo sapiens, MOLM-13, 96 h; 4 days; read-out: IC50 (nM) MOLM-13 Cell Line (CellTiter-Glo assay). It counts as cell-based. In short, it runs like this: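 MOLM-13 leukemia cells treated with compounds; viability read by CellTiter-Glo luminescence after 10-20 min reagent incubation at room temperature. IC50 derived from luminescent signal.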
Background: ATP-based viability assays read luminescence as a measure of living cells.

The test system of series [4] is MDA-MB-436. The series can be described thus: Cell growth inhibition, MDA-MB-436 breast cancer cells (WST-8). It counts as cell-based. As to conditions: Homo sapiens, 4 days. In short, it runs like this:
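IC50 was computed from WST-8-based cell counting in MDA-MB-436 cells, with absorbance read at 450 nm.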

The subject of series [5] is VCaP prostate cancer cells. Put plainly: Cell growth inhibition, VCaP prostate cancer cells (Cell-Titer GLO). It counts as cell-based. Conditions: for IC50: Homo sapiens, VCaP, 96 h incubation, read-out: IC50 (nM) VCaP Cell Line (CellTiter-Glo assay). The protocol: For prostate cancer cell lines, VCaP prostate cancer cells were grown in DMEM with Glutamax (Gibco) supplemented with 10% FBS (Invitrogen) in 5% CO2 cell culture incubator. All cell lines were tested and found to be free of mycoplasma contamination. Cells were seeded in 96-well plates at 2,000-10,000 cells per well (optimum density for growth) in a total volume of […] media containing 10% FBS. Serially diluted compounds in […] media were added to the cells 12 h later. […] The values were normalized and IC50 was calculated using GraphPad Prism software.
Cells were seeded in 96-well plates at 2000-10,000 cells/well (optimum density for growth) in a total volume of 100 μl media containing 10% FBS. Serially diluted compounds in 100 μl media were added to the cells 12 h later. Following 96 h. incubation, cell viability was assessed by Cell-Titer GLO (Promega). The values were normalized and IC50 was calculated using GraphPad Prism software. […] After 12 days cells were fixed with methanol, stained with crystal violet and photographed. For colorimetric assays, the stained wells were treated with 500 μl 10% acetic acid and the absorbance was measured at 560 nm using a spectrophotometer.

Series [6] has as its system BRD2/3/4. The series can be described thus: ChIP-seq of BRD2/3/4 in VCaP cells. It counts as cell-based. Conditions: 500 nM, 12 h. The protocol:
(§2) The ChIP assays for BRD2, BRD3, BRD4, AR, RNA PolII, ERG and H3K27ac were performed using HighCell ChIP kit (Diagenode) according to manufacturer's protocol. […] Next, cells were cross-linked for 10 min. with 1% formaldehyde. […] Chromatin equivalent to 5×10^6 cells were used for ChIP using different antibodies. ChIP DNA was isolated (IPure Kit, Diagenode) from samples by incubation with the antibody at 4° C. overnight followed by wash and reversal of cross-linking. The ChIP-seq sample preparation for sequencing was performed according to the manufacturer's instructions (Illumina). […] A single A-base was added to fragment ends by Klenow fragment (3′ to 5′ exo minus; NEB) followed by ligation of Illumina adaptors (Quick ligase, NEB). The adaptor-modified DNA fragments were enriched by PCR using the Illumina Barcode primers and Phusion DNA polymerase (NEB). PCR products were size selected using 3% NuSieve agarose gels (Lonza) followed by gel extraction using QIAEX II reagents (QIAGEN). Libraries were quantified with the Bioanalyzer 2100 (Agilent) and sequenced on the Illumina HiSeq 2000 Sequencer (100 nucleotide read length).

Series [7] has as its system AR. The series can be described thus: ChIP-seq of AR in DHT-stimulated VCaP cells. It counts as cell-based. As to conditions: DHT 10 nM plus JQ1 500 nM, MDV3100 10 μM or Bicalutamide 25 μM, FIG. 17. The procedure:
as §2
For enrichment plots shown in FIGS. 17, 19 and 20, identified peaks for each sample are centered by peak summit and average coverage per million was counted within 1500 bp relative to the peak center.

For series [8], the system named is VCaP tumor xenograft. The protocol:
(§3) Four week-old male SCID C.B17 mice were procured from a breeding colony at University of Michigan. All procedures involving mice were approved by the University Committee on Use and Care of Animals (UCUCA) at the University of Michigan and conform to all regulatory standards. Mice were anesthetized using 2% Isoflurane (inhalation) and 2×10^6 VCaP prostate cancer cells suspended in 100 μl of PBS with 50% Matrigel (BD Biosciences) were implanted subcutaneously into the dorsal flank on both sides of the mice. […] Growth in tumor volume was recorded using digital calipers and tumor volumes were estimated using the formula (π/6) (L×W^2), where L=length of tumor and W=width. Loss of body weight during the course of the study was also monitored. At the end of the studies mice were sacrificed and tumors extracted and weighed. Additionally, femur bone marrow, liver and spleen were harvested to examine spontaneous metastasis by detecting human-Alu sequence. […] All procedures involving mice were approved by the University Committee on Use and Care of Animals (UCUCA) at the University of Michigan and conform to all regulatory standards.

Series [9] has as its system VCaP xenograft model. Put plainly: Spontaneous metastasis in the VCaP xenograft model (human Alu qPCR). The class given is in vivo, mice. Conditions: femur, liver and spleen; JQ1 50 mg/kg, MDV3100 10 mg/kg. The procedure: as §3
(In general: In xenograft studies the graft and the host belong to different species.)

Series [10] concerns LNCaP. Put plainly: Cell growth inhibition, LNCaP prostate cancer cells (Cell-Titer GLO). As to conditions: Homo sapiens, read-out: Cellular data LNCaP IC50. It counts as cell-based.
The mark [11] stands for this setting: competitive FP assay, protein 10 nM, probe […], read-out: IC50 (nM) BRD4 BD1.
Where [12] appears, read: competitive FP assay, protein 6 nM, probe […], read-out: IC50 (nM) BRD4 BD2.
Where [13] appears, read: MDA-MB-436, 96 h, read-out: IC50 (nM) MDA-MB-436 Cell Line (WST assay).

As for `COc1cc2c(cc1-c1c(C)noc1C)[nH]c1nc(C)nc(Nc3c4c(nn3C(C)C)CCC4)c12` [Cpd. No. 137, 7-(3,5-Dimethylisoxazol-4-yl)-N-(2-isopropyl-2,4,5,6-tetrahydrocyclopenta[c]pyrazol-3-yl)-6-methoxy-2-methyl-9H-pyrimido[4,5-b]indol-4-amine], the IC50 (in general, the concentration at which inhibition is half-maximal) in series [1] (setting [11]) amounted to 4.5 nM; in [2] (setting [12]), 1.2 nM; in series [3] it was 4.3 nM; in series [4] (setting [13]), 11.3 nM; in [5] it was 23.4 nM.

As for `CCn1nc2c(c1Nc1nc(C)nc3[nH]c4cc(-c5c(C)noc5C)c(OC)cc4c13)CCC2` [Cpd. No. 141, 7-(3,5-Dimethylisoxazol-4-yl)-N-(2-ethyl-2,4,5,6-tetrahydrocyclopenta[c]pyrazol-3-yl)-6-methoxy-2-methyl-9H-pyrimido[4,5-b]indol-4-amine], the IC50 in series [1] (setting [11]) is 4.6 nM; in series [2] (setting [12]), 1.1 nM; in series [3], 1.6 nM; in series [4] (setting [13]), 13.6 nM; in [5], 19.3 nM.

With `CCn1nc(C2CC2)cc1Nc1nc(C)nc2[nH]c3cc(-c4c(C)noc4C)c(OC)cc3c12` [Cpd. No. 144, N-(3-Cyclopropyl-1-ethyl-1H-pyrazol-5-yl)-7-(3,5-dimethylisoxazol-4-yl)-6-methoxy-2-methyl-9H-pyrimido[4,5-b]indol-4-amine], the IC50 worked out at 2.1 nM in [1] (setting [11]); 0.7 nM in series [2] (setting [12]); 3 nM in [3]; 14.5 nM in series [4] (setting [13]); 53.8 nM in series [5].

Turning to `COc1cc2c(cc1-c1c(C)noc1C)[nH]c1nc(C)nc(Nc3c(C)c(C)nn3C(C)(C)C)c12` [Cpd. No. 185, N-(1-(tert-butyl)-3,4-dimethyl-1H-pyrazol-5-yl)-7-(3,5-dimethylisoxazol-4-yl)-6-methoxy-2-methyl-9H-pyrimido[4,5-b]indol-4-amine], the IC50 in series [1] (setting [11]) was 4.9 nM; in series [2] (setting [12]), 12.3 nM; in [3] it was 17 nM; in [4] (setting [13]), 71 nM; in [5] it was 64.7 nM.

In the case of `CCNC(=O)C[C@@H]1N=C(c2ccc(Cl)cc2)c2cc(OC)ccc2-n2c(C)nnc21` [I-BET762], the “recruitment of BRD2/3/4 to the chromatin” value in series [6] is “reduction in the recruitment”.

Turning to `CNC(=O)c1ccc(N2C(=S)N(c3ccc(C#N)c(C(F)(F)F)c3)C(=O)C2(C)C)cc1F` [MDV3100, enzalutamide], the “VCaP cell viability in vitro” value in [5] (8 days, FIG. 22) is “Marginal cell death”. Besides, in [7], the “recruitment of AR to target loci” value was “markedly attenuated”. Further, the tumor volume/weight entry in [8] (VCaP tumor-bearing mice, JQ1 50 mg/kg, MDV3100 10 mg/kg, 5 days/week, FIGS. 23-25) is “less pronounced effect”. The tolerability result in series [8] (mouse, in vivo) is “well tolerated”. In series [9], the spontaneous metastasis entry is “evidence of metastases in femur and liver”.

On to `COc1nc2c(cc1-c1c(C)noc1C)[nH]c1nc(C)nc(Nc3cc(C4CC4)nn3C)c12` [compound 322, N-(3-cyclopropyl-1-methyl-1H-pyrazol-5-yl)-7-(3,5-dimethylisoxazol-4-yl)-6-methoxy-2-methyl-9H-pyrido[2′,3′:4,5]pyrrolo[2,3-d] pyrimidin-4-amine], for which the IC50 in [1] (FP competitive binding, BRD4 BD1, read-out: Binding affinities (FP) BRD4BD1 IC50) was 199 nM; in series [2] (FP competitive binding, BRD4 BD2, read-out: Binding affinities (FP) BRD4BD2 IC50) it was 214 nM; in series [4] (96 h, MDA-MB-436 cells, read-out: Cellular data MDA-MB-436 IC50) it was 646 nM; in series [10] it was 674 nM. In addition, the inhibition constant Ki – broadly, the dissociation constant of the complex between target and ligand, obtained from inhibition or displacement – in series [1] (FP competitive binding, BRD4 BD1, read-out: Binding affinities (FP) BRD4BD1 Ki) came out at 68 nM; in series [2] (FP competitive binding, BRD4 BD2, read-out: Binding affinities (FP) BRD4BD2 Ki) it was 67 nM.
